Laboratory results as given in patent US10899754B2, “Modulators of indoleamine 2,3-dioxygenase” (GLAXOSMITHKLINE INTELLECTUAL PROPERTY DEVELOPMENT LIMITED, priority 2016, dated 2021).

Experiments:
[1] = target: indoleamine 2, 3-dioxygenase (IDO1) (Homo sapiens, UniProt P14902); test: IDO1 HeLa RapidFire MS assay (kynurenine detection by mass spectrometry); assay type: cell-based; set-up: to induce the expression of indoleamine 2, 3-dioxygenase (IDO1); details: HeLa cells, pIC50, read-out: IDO1_HELA_PXC50 (converted)
indoleamine 2, 3-dioxygenase (IDO1), sequence (P14902 whole entry): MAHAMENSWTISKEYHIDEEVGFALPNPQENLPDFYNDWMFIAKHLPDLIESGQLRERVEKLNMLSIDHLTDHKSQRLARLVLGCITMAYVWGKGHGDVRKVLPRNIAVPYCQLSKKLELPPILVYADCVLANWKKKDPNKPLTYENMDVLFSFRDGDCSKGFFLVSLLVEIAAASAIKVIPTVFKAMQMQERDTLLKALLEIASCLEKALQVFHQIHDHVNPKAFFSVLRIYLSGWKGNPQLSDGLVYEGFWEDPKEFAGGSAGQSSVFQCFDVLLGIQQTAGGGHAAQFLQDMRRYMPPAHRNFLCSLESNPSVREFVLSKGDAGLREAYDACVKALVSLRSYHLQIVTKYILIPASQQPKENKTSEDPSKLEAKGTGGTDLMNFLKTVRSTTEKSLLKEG
Method: IDO1 HeLa RapidFire MS Assay
(§1) Compounds of the present invention were tested via high-throughput cellular assays utilizing detection of kynurenine via mass spectrometry and cytotoxicity as end-points. For the mass spectrometry and cytotoxicity assays, human epithelial HeLa cells (CCL-2; ATCC®, Manassas, Va.) were stimulated with human interferon-γ (IFN-γ) (Sigma-Aldrich Corporation, St. Louis, Mo.) to induce the expression of indoleamine 2, 3-dioxygenase (IDO1). Compounds with IDO1 inhibitory properties decreased the amount of kynurenine produced by the cells via the tryptophan catabolic pathway. Cellular toxicity due to the effect of compound treatment was measured using CellTiter-Glo® reagent (CTG) (Promega Corporation, Madison, Wis.), which is based on luminescent detection of ATP, an indicator of metabolically active cells.
(§2) In preparation for the assays, test compounds were serially diluted 3-fold in DMSO from a typical top concentration of 1 mM or 5 mM and plated at 0.5 μL in 384-well, polystyrene, clear bottom, tissue culture treated plates with lids (Greiner Bio-One, Kremsmünster, Austria) to generate 11-point dose response curves. Low control wells (0% kynurenine or 100% cytotoxicity) contained either 0.5 μL of DMSO in the presence of unstimulated (−IFN-γ) HeLa cells for the mass spectrometry assay or 0.5 μL of DMSO in the absence of cells for the cytotoxicity assay, and high control wells (100% kynurenine or 0% cytotoxicity) contained 0.5 μL of DMSO in the presence of stimulated (+IFN-γ) HeLa cells for both the mass spectrometry and cytotoxicity assays.
(§3) Frozen stocks of HeLa cells were washed and recovered in DMEM high glucose medium with HEPES (Thermo Fisher Scientific, Inc., Waltham, Mass.) supplemented with 10% v/v certified fetal bovine serum (FBS) (Thermo Fisher Scientific, Inc., Waltham, Mass.), and 1× penicillin-streptomycin antibiotic solution (Thermo Fisher Scientific, Inc., Waltham, Mass.). The cells were diluted to 100,000 cells/mL in the supplemented DMEM medium. 50 μL of either the cell suspension, for the mass spectrometry assay, or medium alone, for the cytotoxicity assay, were added to the low control wells, on the previously prepared 384-well compound plates, resulting in 5,000 cells/well or 0 cells/well respectively. IFN-γ was added to the remaining cell suspension at a final concentration of 10 nM, and 50 μL of the stimulated cells were added to all remaining wells on the 384-well compound plates. The plates, with lids, were then placed in a 37° C., 5% CO2 humidified incubator for 2 days.
(§4) Following incubation, the 384-well plates were removed from the incubator and allowed to equilibrate to room temperature for 30 minutes. For the cytotoxicity assay, CellTiter-Glo® was prepared according to the manufacturer's instructions, and 10 μL were added to each plate well. After a twenty minute incubation at room temperature, luminescence was read on an EnVision® Multilabel Reader (PerkinElmer Inc., Waltham, Mass.). For the mass spectrometry assay, 10 μL of supernatant from each well of the compound-treated plates were added to 40 μL of acetonitrile, containing 10 μM of an internal standard for normalization, in 384-well, polypropylene, V-bottom plates (Greiner Bio-One, Kremsmünster, Austria) to extract the organic analytes. Following centrifugation at 2000 rpm for 10 minutes, 10 μL from each well of the acetonitrile extraction plates were added to 90 μL of sterile, distilled H2O in 384-well, polypropylene, V-bottom plates for analysis of kynurenine and the internal standard on the RapidFire 300 (Agilent Technologies, Santa Clara, Calif.) and 4000 QTRAP MS (SCIEX, Framingham, Mass.). MS data were integrated using Agilent Technologies' RapidFire Integrator software, and data were normalized for analysis as a ratio of kynurenine to the internal standard. […]

[2] = system: human epithelial HeLa cells; test: HeLa cytotoxicity assay (CellTiter-Glo); assay type: cell-based; details: pCC50
Method: as §1, §2, §3, §4

CC(C)CN(c1ccc(-c2ccccc2C(=O)O)cc1Nc1nc(C(F)(F)F)ns1)C1CCNCC1 [example 272, 4′-[(2-methylpropyl)(piperidin-4-yl)amino]-3′-{[3-(trifluoromethyl)-1,2,4-thiadiazol-5-yl]amino}-[1,1′-biphenyl]-2-carboxylic acid]
IC50 [1]: 5010 nM | HELA_IDO1_TOX_PXC50 [2]: <5

CC(C)CN(CC(C)C)c1ccc(C(C)CC(=O)O)cc1Nc1nc2c(s1)CCCC2 (stereo not shown) [example 131, 3-{4-[bis(2-methylpropyl)amino]-3-[(4,5,6,7-tetrahydro-1,3-benzothiazol-2-yl)amino]phenyl}butanoic acid]
IC50 [1]: 631 nM | HELA_IDO1_TOX_PXC50 [2]: 4.7

COCc1ncc(Nc2cc(C(C)CC(=O)O)ccc2N(CC(C)C)CC(C)C)o1 (stereo not shown) [example 191, 3-{4-[bis(2-methylpropyl)amino]-3-{[2-(methoxymethyl)-1,3-oxazol-5-yl]amino]phenyl}butanoic acid]
IC50 [1]: 2000 nM | HELA_IDO1_TOX_PXC50 [2]: <5

CC(C)CN(c1ccc(C(C)CC(=O)O)cc1NC1=N[C@H](c2ccccc2)CS1)C1CCCCC1 (stereo partly drawn) [example 148, 3-{4-[cyclohexyl(2-methypropyl)amino]-3-{[(4R)-4-phenyl-4,5-dihydro-1,3-thiazol-2-yl]amino}phenyl}butanoic acid]
IC50 [1]: 631 nM | HELA_IDO1_TOX_PXC50 [2]: <5

CC(C)CN(c1ccc(-c2c[nH]nc2C(=O)O)cc1Nc1nc2ccccc2o1)C1CCCCC1 [example 175, 4-{3-[(1,3-benzoxazol-2-yl)amino]-4-[cyclohexyl(2-methylpropyl)amino]phenyl}-1H-pyrazole-3-carboxylic acid]
IC50 [1]: 5010 nM | HELA_IDO1_TOX_PXC50 [2]: <5

CC(C)CN(c1ccc(-c2cccnc2C(=O)O)cc1Nc1nc(Cl)ns1)C1CCOCC1 [example 270, 3-{3-[(3-chloro-1,2,4-thiadiazol-5-yl)amino]-4-[(2-methylpropyl)(oxan-4-yl)amino]phenyl}pyridine-2-carboxylic acid]
IC50 [1]: 1580 nM | HELA_IDO1_TOX_PXC50 [2]: <5

Cc1nnc(Nc2cc(C(C)CC(=O)O)ccc2N(CC(C)C)CC(C)C)o1.O=C(O)C(F)(F)F (stereo not shown) [example 125, 3-{4-[bis(2-methylpropyl)amino]-3-[(5-methyl-1,3,4-oxadiazol-2-yl)amino]phenyl}butanoic acid]
IC50 [1]: 1260 nM | HELA_IDO1_TOX_PXC50 [2]: <4.3

CC(C)CN(c1ccc(-c2ccccc2C(=O)O)cc1Nc1nc(C(F)(F)F)ns1)C1CCN(CCO)CC1 [example 271, 4′-{[1-(2-hydroxyethyl)piperidin-4-yl](2-methylpropyl)amino}-3′-{[3-(trifluoromethyl)-1,2,4-thiadiazol-5-yl]amino}-[1,1′-biphenyl]-2-carboxylic acid]
IC50 [1]: 6310 nM | HELA_IDO1_TOX_PXC50 [2]: <5

CC(C)CN(c1ccc(-c2ccccc2C(=O)NS(C)(=O)=O)cc1Nc1nc(C(F)(F)F)ns1)C1CCCCC1 [example 282, 4′-[cyclohexyl(2-methylpropyl)amino]-N-methanesulfonyl-3-′ {[3-(trifluoromethyl)-1,2,4-thiadiazol-5-yl]amino}-[1,1′-biphenyl]-2-carboxamide]
IC50 [1]: 50.1 nM | HELA_IDO1_TOX_PXC50 [2]: <5

CC(C)CN(CC(C)C)c1ccc(C(C)CC(=O)O)cc1Nc1nncs1 (stereo not shown) [example 196, 3-{4-[bis(2-methylpropyl)amino]-3-[(1,3,4-thiadiazol-2-yl)amino]phenyl}butanoic acid]
IC50 [1]: 158 nM | HELA_IDO1_TOX_PXC50 [2]: <5

CC(C)CN(CC(C)C)c1ccc(C(C)CC(=O)O)cc1Nc1ccccc1 (stereo not shown) [example 142, 3-{4-[bis(2-methylpropyl)amino]-3-(phenylamino)phenyl} butanoic acid]
IC50 [1]: 158 nM | HELA_IDO1_TOX_PXC50 [2]: <5

COCc1ccc(Nc2cc(C(C)CC(=O)O)ccc2N(CC(C)C)CC(C)C)nc1 (stereo not shown) [example 193, 3-{4-[bis(2-methylpropyl)amino]-3-{[5-(methoxymethyl)pyridin-2-yl]amino}phenyl}butanoic acid]
IC50 [1]: 100 nM | HELA_IDO1_TOX_PXC50 [2]: <5

CC(C)CN(CC(C)C)c1ccc(C(C)CC(=O)O)cc1Nc1ccc(C(N)=O)cn1 (stereo not shown) [example 204, 3-{4-[bis(2-methylpropyl)amino]-3-[(5-carbamoylpyridin-2-yl)amino]phenyl}butanoic acid]
IC50 [1]: 3160 nM | HELA_IDO1_TOX_PXC50 [2]: <5

CC(C)CN(CC(C)C)c1ccc(C(C)CC(=O)O)cc1Nc1ccc(NS(C)(=O)=O)cn1 (stereo not shown) [example 200, 3-{4-[bis(2-methylpropyl)amino]-3-[(5-methanesulfonamido-pyridin-2-yl)amino]phenyl}butanoic acid]
IC50 [1]: > 10000 nM | HELA_IDO1_TOX_PXC50 [2]: <5

CC(C)CN(c1ccc(-c2ccccc2C(=O)O)cc1Nc1nc(C(=O)O)ns1)C1CCCCC1 [example 275, 5-({2′-carboxy-4-[cyclohexyl(2-methylpropyl)amino]-[1,1′-biphenyl]-3-yl}amino)-1,2,4-thiadiazole-3-carboxylic acid]
IC50 [1]: 6310 nM | HELA_IDO1_TOX_PXC50 [2]: <5

CC(C)CN(c1ccc([C@H](C)CC(=O)O)cc1NC1CCC(C)(C)CC1)C1CCCCC1 [example 182, (3R)-3-{4-[cyclohexyl(2-methylpropyl)amino]-3-[(4,4-dimethylcyclohexyl)ami-no]phenyl}butanoic acid]
IC50 [1]: 5010 nM | HELA_IDO1_TOX_PXC50 [2]: <5

CC(C)CN(CC(C)C)c1ccc(C(C)CC(=O)O)cc1Nc1nnc(NS(C)(=O)=O)s1 (stereo not shown) [example 192, 3-{4-[bis(2-methylpropyl)amino]-3-[(5-methanesulfonamido-1,3,4-thiadiazol-2-yl)amino]phenyl}butanoic acid]
IC50 [1]: 5010 nM | HELA_IDO1_TOX_PXC50 [2]: <5

CC(C)CN(c1ccc(-c2ncccc2C(=O)O)cc1Nc1nc2ccccc2o1)C1CCCCC1 [example 292, 2-{3-[(1,3-benzoxazol-2-yl)amino]-4-[cyclohexyl(2-methylpropyl)amino]phenyl}pyridine-3-carboxylic acid]
IC50 [1]: 794 nM | HELA_IDO1_TOX_PXC50 [2]: <5

CC(=O)N1CCC(Nc2cc(C(C)CC(=O)O)ccc2N(CC(C)C)C2CCCCC2)C1 (stereo not shown) [example 135, 3-{3-[(1-acetylpyrrolidin-3-yl)amino]-4-[cyclohexyl(2-methylpropyl)amino]phenyl}butanoic acid]
IC50 [1]: 3980 nM | HELA_IDO1_TOX_PXC50 [2]: <5

CC(C)CN(CC(C)C)c1ccc(C(C)CC(=O)O)cc1Nc1c(Nc2ccccc2)c(=O)c1=O (stereo not shown) [example 124, 3-{4-[bis(2-methylpropyl)amino]-3-{(3,4-dioxo-2-(phenylamino)cyclobut-1-en-1-yl]amino}phenyl}butanoic acid]
IC50 [1]: 12600 nM | HELA_IDO1_TOX_PXC50 [2]: <4.3

COCc1nnc(Nc2cc([C@H](C)CC(=O)O)ccc2N(CC(C)C)CC(C)C)[nH]1 [example 190, (3R)-3-{4-[bis(2-methylpropyl)amino]-3-{[5-(methoxymethyl)-4H-1,2,4-triazol-3-yl]amino}phenyl}butanoic acid]
IC50 [1]: 79.4 nM | HELA_IDO1_TOX_PXC50 [2]: <5

CC(C)CN(CC(C)C)c1ccc(C(C)CC(=O)O)cc1Nc1nnc(CC(N)=O)s1 (stereo not shown) [example 195, 3-{4-[bis(2-methylpropyl)amino]-3-{[5-(carbamoylmethyl)-1,3,4-thiadiazol-2-yl]amino}phenyl}butanoic acid]
IC50 [1]: 3160 nM | HELA_IDO1_TOX_PXC50 [2]: <5

Cc1nnc(Nc2cc([C@H](C)CC(=O)O)ccc2N(CC(C)C)CC(C)C)s1 [example 186, (3R)-3-{4-[bis(2-methylpropyl)amino]-3-[(5-methyl-1,3,4-thiadiazol-2-yl)amino]phenyl}butanoic acid]
IC50 [1]: 79.4 nM | HELA_IDO1_TOX_PXC50 [2]: <5
